This note sets out measurements from ChEMBL document CHEMBL1148585, “Classification of chemical compounds by protein-compound docking for use in designing a focused library” (J Med Chem, 2006).

SMILES strings stand for the structures.

For the test, the target named is T1, Macrophage migration inhibitory factor (Homo sapiens, UniProt P14174).
T1 sequence (P14174 whole entry): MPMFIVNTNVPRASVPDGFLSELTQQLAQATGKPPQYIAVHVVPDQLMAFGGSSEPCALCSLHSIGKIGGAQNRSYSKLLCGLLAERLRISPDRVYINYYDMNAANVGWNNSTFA
In words: Inhibition of MIF.
One may read the IC50 as the concentration that gives 50% inhibition. Lower therefore signals greater potency. For the compound `O=C(O)C1Nc2ccc(Br)cc2C2C=CCC12` (stereo not given), inhibition was half-maximal at 3.4 µM (IC50).
The result for `O=C(O)CC(c1ccc(Cl)cc1)(c1ccc(Cl)cc1)c1ccc(Cl)cc1` reads 8.1 µM; that for `Oc1ccc(CSc2ccncc2)cc1O`, 0.4 µM; that for `O=C(c1cnc(CCCC2CCCCC2)o1)N1CCN(Cc2ccccc2)CC1`, 30 µM.
For `CC(C)C(=O)Nc1cc2c(cc1CCc1cccc3ccccc13)C(C(=O)O)CC2c1cccs1` (stereo not given), it took 8 µM to reach half-maximal inhibition (IC50).
